Measurements from patent US20020137929A1, “1 - (3-heterocyclylphenyl) isothiourea, -isourea, -guanidine and -amidine herbicidal agents” (Intellectual Property Department, BASF Aktiengesellschaft, priority 1998, published 2002).

Tests used:
AMBEL (Ragweed, Common) = assay: Postemergence herbicidal evaluation; assay type: in vivo, Ambrosia artemisifolia; conditions: postemergence
How it was run: (§1)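 Scores (0–9) reflect plant stand, vigor, malformation, size, chlorosis and general appearance relative to control, read 4 to 5 weeks after treatment and averaged where tests were repeated. Application: about 0.0156–0.500 kg/ha sprayed at 40 psi onto two-week seedlings.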

MOOVA (Monochoria) = assay: Preemergence weed control under flooded paddy conditions; assay type: in vivo, Monochoria vaginalis; conditions: rated 3-4 weeks after treatment
How it was run: (§2)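 Seeds or propagules sown in silt loam kept flooded 1.5-3 cm; compounds in 50/50 acetone/water pipetted into flood water at about 0.0313 to 0.500 kg/ha. Greenhouse; visual 0-9 rating versus untreated control 3-4 weeks after treatment.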

[1] = test system: GLXMAW (Soybean, Williams); assay: Preemergence herbicidal evaluation; assay type: in vivo, Glycine max, (L.) Merr. cv Williams; conditions: rated 4-5 weeks after treatment
How it was run: (§3)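 Sown cups got a single aqueous acetone spray of test compound (roughly 0.0156–0.500 kg/ha) before seedlings emerged. Evaluation, 4–5 weeks on, used a 0–9 visual scale covering plant stand, vigor, size, malformation, chlorosis and general appearance compared with controls.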

ORYSAT (Rice, Tebonnet) [2] = assay: Preemergence herbicidal evaluation; assay type: in vivo, Oryza sativa, (L.) Tebonnet; conditions: rated 4-5 weeks after treatment
How it was run: as §3

[3] = test system: SAGPY (Arrowhead (Pygmaea)); assay: Preemergence weed control under flooded paddy conditions; assay type: in vivo, Sagittaria pygmaea; conditions: rated 3-4 weeks after treatment
How it was run: as §2

[4] = test system: IPOHE (Morningglory, Ivyleaf); assay: Postemergence herbicidal evaluation; assay type: in vivo, Ipomoea hederacea; conditions: postemergence
How it was run: as §1

CYPIR (Rice Flatsedge) = assay: Preemergence weed control under flooded paddy conditions; assay type: in vivo, Cyperus iria; conditions: rated 3-4 weeks after treatment
How it was run: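 Ratings on a 0-9 visual scale cover stand, vigor, malformation, size, chlorosis and overall appearance relative to a control, taken three to four weeks post-treatment. Application was into flood water over freshly sown silt loam at roughly 0.0313 to 0.500 kg/ha.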

CASOB (Sicklepod) = assay: Preemergence herbicidal evaluation; assay type: in vivo, Cassia obtusifolia; conditions: rated 4-5 weeks after treatment
How it was run: as §3

ABUTH (Velvetleaf) [5] = assay: Preemergence herbicidal evaluation; assay type: in vivo, Abutilon theophrasti; conditions: rated 4-5 weeks after treatment
How it was run: as §3

ABUTH (Velvetleaf) [6] = assay: Postemergence herbicidal evaluation; assay type: in vivo, Abutilon theophrasti; conditions: postemergence
How it was run: as §1

[7] = test system: CHEAL (Lambsquarters, Common); assay: Postemergence herbicidal evaluation; assay type: in vivo, Chenopodium album; conditions: postemergence
How it was run: as §1

GALAP (Galium) = assay: Postemergence herbicidal evaluation; assay type: in vivo, Galium aparine; conditions: postemergence
How it was run: as §1

SETVI (Foxtail, Green) = assay: Postemergence herbicidal evaluation; assay type: in vivo, Setaria viridis; conditions: postemergence
How it was run: as §1

ORYSAT (Rice, Tebonnet) [8] = assay: Postemergence herbicidal evaluation; assay type: in vivo, Oryza sativa, (L.) Tebonnet; conditions: postemergence
How it was run: as §1

ECHCG (Barnyardgrass) = assay: Postemergence herbicidal evaluation; assay type: in vivo, Echinochloa crus-galli; conditions: postemergence
How it was run: as §1

[9] = test system: TRZAWR (Wheat, Winter, cv Riband); assay: Preemergence herbicidal evaluation; assay type: in vivo, Triticum aestivum; conditions: rated 4-5 weeks after treatment
How it was run: as §3

[10] = test system: GLXMAW (Soybean, Williams); assay: Postemergence herbicidal evaluation; assay type: in vivo, Glycine max, (L.) Merr. cv Williams; conditions: postemergence
How it was run: as §1

CCOC(=O)CN1C(=O)C(Cc2ccccc2OC(C)C(=O)O)S/C1=N/c1cc(-n2c(=O)cc(C(F)(F)F)n(C)c2=O)c(F)cc1Cl (stereo not shown) [Compound 114, 5-[o-(1-Carboxyethoxy)benzyl]-2-{{2-chloro-5-[3,6-dihydro-3-methyl-2,6-dioxo-4-(trifluoromethyl)-1(2H)-pyrimidinyl]-4-fluorophenyl}imino}-4-oxo-3-thiazolidineacetic acid, 3-ethyl ester]
herbicidal rating AMBEL (AMBEL (Ragweed, Common); rate 0.0158 kg/ha): 4.0 | herbicidal rating AMBEL (AMBEL (Ragweed, Common); rate 0.0315 kg/ha): 9.0 | herbicidal rating AMBEL (AMBEL (Ragweed, Common); rate 0.0630 kg/ha): 7.0 | MOOVA herbicidal effect rating (MOOVA (Monochoria); 0.0313 kg/ha): 9.0 | MOOVA herbicidal effect rating (MOOVA (Monochoria); 0.0625 kg/ha): 9.0 | MOOVA herbicidal effect rating (MOOVA (Monochoria); 0.1250 kg/ha): 9.0 | MOOVA herbicidal effect rating (MOOVA (Monochoria); 0.2500 kg/ha): 9.0 | Preemergence herbicidal rating GLXMAW ([1]; rate 0.0156 kg/ha): 0.0 | Preemergence herbicidal rating GLXMAW ([1]; rate 0.0313 kg/ha): 1.0 | Preemergence herbicidal rating GLXMAW ([1]; rate 0.0625 kg/ha): 0.0 | Preemergence herbicidal rating GLXMAW ([1]; rate 0.1250 kg/ha): 2.0 | Preemergence herbicidal rating GLXMAW ([1]; rate 0.2500 kg/ha): 3.0 | Preemergence herbicidal rating ORYSAT (ORYSAT (Rice, Tebonnet) [2]; rate 0.0156 kg/ha): 0.0 | Preemergence herbicidal rating ORYSAT (ORYSAT (Rice, Tebonnet) [2]; rate 0.0313 kg/ha): 0.0 | Preemergence herbicidal rating ORYSAT (ORYSAT (Rice, Tebonnet) [2]; rate 0.0625 kg/ha): 0.0 | Preemergence herbicidal rating ORYSAT (ORYSAT (Rice, Tebonnet) [2]; rate 0.1250 kg/ha): 2.0 | Preemergence herbicidal rating ORYSAT (ORYSAT (Rice, Tebonnet) [2]; rate 0.2500 kg/ha): 2.0 | SAGPY herbicidal effect rating ([3]; 0.0313 kg/ha): 3.5 | SAGPY herbicidal effect rating ([3]; 0.0625 kg/ha): 3.5 | SAGPY herbicidal effect rating ([3]; 0.1250 kg/ha): 3.5 | SAGPY herbicidal effect rating ([3]; 0.2500 kg/ha): 4.5 | herbicidal rating IPOHE ([4]; rate 0.0158 kg/ha): 9.0 | herbicidal rating IPOHE ([4]; rate 0.0315 kg/ha): 9.0 | herbicidal rating IPOHE ([4]; rate 0.0630 kg/ha): 9.0 | CYPIR herbicidal effect rating (CYPIR (Rice Flatsedge); 0.0313 kg/ha): 4.5 | CYPIR herbicidal effect rating (CYPIR (Rice Flatsedge); 0.0625 kg/ha): 6.5 | CYPIR herbicidal effect rating (CYPIR (Rice Flatsedge); 0.1250 kg/ha): 8.5 | CYPIR herbicidal effect rating (CYPIR (Rice Flatsedge); 0.2500 kg/ha): 9.0 | Preemergence herbicidal rating CASOB (CASOB (Sicklepod); rate 0.0156 kg/ha): 0.0 | Preemergence herbicidal rating CASOB (CASOB (Sicklepod); rate 0.0313 kg/ha): 0.0 | Preemergence herbicidal rating CASOB (CASOB (Sicklepod); rate 0.0625 kg/ha): 1.0 | Preemergence herbicidal rating CASOB (CASOB (Sicklepod); rate 0.1250 kg/ha): 3.0 | Preemergence herbicidal rating CASOB (CASOB (Sicklepod); rate 0.2500 kg/ha): 9.0 | Preemergence herbicidal rating ABUTH (ABUTH (Velvetleaf) [5]; rate 0.0156 kg/ha): 0.0 | Preemergence herbicidal rating ABUTH (ABUTH (Velvetleaf) [5]; rate 0.0313 kg/ha): 1.0 | Preemergence herbicidal rating ABUTH (ABUTH (Velvetleaf) [5]; rate 0.0625 kg/ha): 6.0 | Preemergence herbicidal rating ABUTH (ABUTH (Velvetleaf) [5]; rate 0.1250 kg/ha): 9.0 | Preemergence herbicidal rating ABUTH (ABUTH (Velvetleaf) [5]; rate 0.2500 kg/ha): 9.0 | herbicidal rating ABUTH (ABUTH (Velvetleaf) [6]; rate 0.0158 kg/ha): 9.0 | herbicidal rating ABUTH (ABUTH (Velvetleaf) [6]; rate 0.0315 kg/ha): 9.0 | herbicidal rating ABUTH (ABUTH (Velvetleaf) [6]; rate 0.0630 kg/ha): 9.0 | herbicidal rating CHEAL ([7]; rate 0.0158 kg/ha): 7.0 | herbicidal rating CHEAL ([7]; rate 0.0315 kg/ha): 6.0 | herbicidal rating CHEAL ([7]; rate 0.0630 kg/ha): 9.0 | herbicidal rating GALAP (GALAP (Galium); rate 0.0158 kg/ha): 1.0 | herbicidal rating GALAP (GALAP (Galium); rate 0.0315 kg/ha): 1.0 | herbicidal rating GALAP (GALAP (Galium); rate 0.0630 kg/ha): 3.0 | herbicidal rating SETVI (SETVI (Foxtail, Green); rate 0.0158 kg/ha): 4.0 | herbicidal rating SETVI (SETVI (Foxtail, Green); rate 0.0315 kg/ha): 3.0 | herbicidal rating SETVI (SETVI (Foxtail, Green); rate 0.0630 kg/ha): 9.0 | herbicidal rating ORYSAT (ORYSAT (Rice, Tebonnet) [8]; rate 0.0158 kg/ha): 1.5 | herbicidal rating ORYSAT (ORYSAT (Rice, Tebonnet) [8]; rate 0.0315 kg/ha): 2.0 | herbicidal rating ORYSAT (ORYSAT (Rice, Tebonnet) [8]; rate 0.0630 kg/ha): 3.0 | herbicidal rating ECHCG (ECHCG (Barnyardgrass); rate 0.0158 kg/ha): 0.0 | herbicidal rating ECHCG (ECHCG (Barnyardgrass); rate 0.0315 kg/ha): 1.0 | herbicidal rating ECHCG (ECHCG (Barnyardgrass); rate 0.0630 kg/ha): 4.0 | Preemergence herbicidal rating TRZAWR ([9]; rate 0.0156 kg/ha): 0.0 | Preemergence herbicidal rating TRZAWR ([9]; rate 0.0313 kg/ha): 0.0 | Preemergence herbicidal rating TRZAWR ([9]; rate 0.0625 kg/ha): 0.0 | Preemergence herbicidal rating TRZAWR ([9]; rate 0.1250 kg/ha): 1.0 | Preemergence herbicidal rating TRZAWR ([9]; rate 0.2500 kg/ha): 3.0 | herbicidal rating GLXMAW ([10]; rate 0.0158 kg/ha): 6.0 | herbicidal rating GLXMAW ([10]; rate 0.0315 kg/ha): 5.5 | herbicidal rating GLXMAW ([10]; rate 0.0630 kg/ha): 6.5
